# Legend:
# [1] = Stability test, influencing factors (illumination, high temperature, high humidity); type: physicochemical
# Procedure: Illumination test chamber, model: SHH-100GD-2, conditions: 5000±500 lux (visible light) and 90 mw/cm^2 (ultraviolet).
# Electric heating blast drying oven, model: GZX-9140MBE condition: 60° C.
# Constant temperature and humidity chamber, model: SHH-250SD, condition: 25° C./75% RH.
# (§1) Influencing factor experimental conditions (high temperature of 60° C., high humidity of 75% RH, illumination): an appropriate amount of crystalline form A of the compound of formula (IIA) was placed in a dry and clean open weighing bottle, then the bottle was placed into a dryer under different conditions, and then placed into a corresponding thermostat for observation. The bottle was taken out after being placed for 5 days, 10 days and 30 days, and related substances and contents thereof were measured. Accelerated and long-term experimental conditions (40° C./75% RH, 25° C./60% RH): an appropriate amount of crystalline form A of the compound of formula (IIA) was filled into a double-layer LDPE bags, each layer of LDPE bag was sealed by a binding buckle, then put into an aluminum foil bag for heat sealing, and then put into a corresponding thermostat to observe acceleration and long-term stability.
# [2] = Stability test, accelerated test 40° C./75% RH (Test Example 4); type: physicochemical; details: 40° C. ± 2° C., 75% RH ± 5% RH
# Description: The conditions and the method for the raw material stability test are mainly based on related requirements such as “Guidelines for the Stability Test of APIs and Preparations” (General Principles 9001 of the Four Parts of the Chinese Pharmacopoeia, 2015 Edition) and technical guidelines for stability study on chemical drugs (raw materials and preparations) issued by the National Medical Products Administration in February, 2015 (revised), and are specifically shown in Table 14.
# [3] = Stability test, long-term conditions 25° C./60% RH (Test Example 3); type: physicochemical; details: 25° C. ± 2° C./60% RH ± 5% RH
# Procedure: (§2) Constant temperature and humidity chamber, model: LDS-800Y, condition: 40° C./75% RH and 25° C./60% RH.
# as §1
# [4] = Stability test, accelerated conditions 40° C./75% RH (Test Example 3); type: physicochemical; details: 40° C. ± 2° C./75% RH ± 5% RH
# Procedure: as §2, §1
# lung cancer PC-9 cells = assay: In vivo efficacy in mice with subcutaneous lung cancer PC-9 xenograft; design: species or system mouse; details: 50 mg/kg (0-9 days), 25 mg/kg (10-21 days) oral once a day
# Procedure: 1. Cell culture: lung cancer PC-9 cells were cultured in an RPMI 1640 medium containing 10% fetal bovine serum, 100 U/mL penicillin and 100 μg/mL streptomycin through in vitro monolayer culture in an incubator at 37° C./5% CO2. The cells were digested with trypsin-EDTA twice a week for passaging as per conventional practice. At a cell saturation of 80%-90% and a required number, the cells were collected and counted. The cell density was 5×10^6 cells. 2. Cell inoculation: 0.2 mL (containing 5×10^6) of a suspension of PC-9 cells (PBS:Matrigel=1:1) was subcutaneously inoculated in the right back of each mouse, and 64 mice were inoculated in total. On day 7 after inoculation, when mean tumor volume was measured to be 169 mm^3, grouping administration was performed using a randomized stratified grouping method based on tumor volume and mice body weight. PBS is phosphate buffered saline, and Matrigel is matrigel. 3. Administration: the dosage was 50 mg/kg for 0-9 days and 25 mg/kg for 10-21 days; the drug was orally administrated once a day for 3 weeks.
# Tumor diameters were measured twice weekly using a vernier caliper. The tumor volume was calculated using the following formula: V=0.5a×b^2, where a and b represent the long diameter and short diameter of the tumor respectively.
# The efficacy of compounds against tumor was evaluated by TGI (%).
# Relative tumor volume (RTV) was calculated based on the results of tumor measurement. The formula is RTV=Vt/V0, where V0 represents the tumor volume measured at the time point of grouping and administration (i.e., Do), and Vt represents the tumor volume at a certain measurement for the corresponding mouse, the data of TRTV and CRTV should be measured on the same day.
# TGI (%) reflects the tumor growth inhibition rate. TGI (%)=[(1−(average tumor volume at the end of administration in a treatment group−average tumor volume at the start of administration of the treatment group))/(average tumor volume at the end of treatment of the solvent control group−average tumor volume at the start of treatment of the solvent control group)]×100%.
# Tumor weights will be measured at the end of the experiment and the TGI (%) was calculated.
# [5] = Plasma, tumor and lung exposure in the efficacy-study mice after last administration; type: in vivo, BALB/c nude mice; details: 15.0 mg/kg/day oral
# Procedure: On day 14 after administration to the groups for the efficacy experiment, before the last administration and 2 h after the last administration, the plasma of the mice was collected by blood collection from the submandibular vein, and the plasma of the mice was collected at 1 h, 4 h, 8 h, and 24 h after the administration. About 100 μL of blood was collected each time, placed in an anticoagulation tube, and centrifuged at 8000 rpm for 7 min to collect blood plasma, and the blood plasma was preserved at −80° C. Tissues of mouse lung and tumor were collected at the same time 2 h after the administration and stored at −80° C.
# [6] = test system: Ba/F3 (Δ19 del/T790M/C797S); assay: In vivo efficacy in BALB/c nude mice with subcutaneous Ba/F3 (Δ19 del/T790M/C797S) xenograft (CDX); details: for tumor volume inhibition value (TGI): 13 consecutive days
# Procedure: In vivo drug efficacy experiment was performed on xenograft (CDX) BALB/c nude mice subcutaneously implanted with Ba/F3 (Δ19 del/T790M/C797S) source. BALB/c nude mice (female, 6-8 weeks, weighing about 18-22 g) were bred in SPF-rated environments, and each cage was ventilated individually (5 mice per cage). All animals were free to obtain a standard certified commercial laboratory diet. 48 mice in total were purchased from Beijing Vital River Laboratory Animal Technology Co., Ltd for the study. Each mouse was implanted with cells subcutaneously in the right flank for tumor growth. The experiment was started when the mean tumor volume reached about 80-120 mm^3. The test compound was administered orally daily with the compound of formula (I) (5 mg/kg, 15 mg/kg, 45 mg/kg, respectively) administered for 13 consecutive days, and the data are shown in Table 5. Tumor volume was measured twice weekly with a two-dimensional caliper, and the volume was measured in mm^3 and calculated according to the following formula: V=0.5a×b^2, where a and b are the long and short diameters, respectively, of the tumor. Anti-tumor efficacy was determined by dividing the mean tumor increase volume of compound-treated animals by the mean tumor increase volume of untreated animals.
# [7] = test system: L858R/T790M/C797S mutation; details: in combination with an EGFR monoclonal antibody drug such as Cetuximab; cited from earlier work
# [8] = High humidity (25° C./75% RH), Day 5
# [9] = High temperature (60° C.), Day 5
# [10] = High temperature (60° C.), Day 10
# [11] = High temperature (60° C.), Day 30
# [12] = Light stability experiment, Day 5
# [13] = Light stability experiment, Day 10
# [14] = BALB/c nude, mouse, plasma, day 14
structure (smiles),measurement,setting,value
COc1cc(N2CCC(N3CCN(C)CC3)CC2)c(C)cc1Nc1ncc(Br)c(Nc2ccc3nccnc3c2P(C)(C)=O)n1,Content,[1]; [8],99.6%
same,Total impurities,[1]; [8],1.41%
same,Content,[1]; [9],99.1%
same,Total impurities,[1]; [9],1.59%
same,Content,[1]; [10],101.6%
same,Total impurities,[1]; [10],1.63%
same,Content,[1]; [11],99.4%
same,Total impurities,[1]; [11],1.71%
same,Content,[1]; Initial value,97.3%
same,Total impurities,[1]; Initial value,1.63%
same,Content,[1]; [12],97.1%
same,Total impurities,[1]; [12],1.99%
same,Content,[1]; [13],95.1%
same,Total impurities,[1]; [13],2.21%
same,Sum of impurities,[2]; month 0,1.18%
same,Water,[2]; month 0,3.0%
same,Sum of impurities,[2]; month 1,1.10%
same,Water,[2]; month 1,3.0%
same,Sum of impurities,[2]; month 2,1.18%
same,Water,[2]; month 2,3.5%
same,Sum of impurities,[2]; month 3,1.30%
same,Water,[2]; month 3,3.2%
same,Sum of impurities,[2]; month 6,1.18%
same,Water,[2]; month 6,2.8%
same,Content,[3]; 0 day,97.3%
same,Total impurities,[3]; 0 day,1.63%
same,Content,[3]; 3 months,99%
same,Total impurities,[3]; 3 months,1.61%
same,Content,[3]; 6 months,98.2%
same,Total impurities,[3]; 6 months,1.73%
same,Content,[3]; 9 months,99.4%
same,Total impurities,[3]; 9 months,1.83%
same,Content,[3]; 12 months,97.7%
same,Total impurities,[3]; 12 months,1.69%
same,Content,[4]; 0 day,97.3%
same,Total impurities,[4]; 0 day,1.63%
same,Content,[4]; 1 month,99.1%
same,Total impurities,[4]; 1 month,1.71%
same,Content,[4]; 2 months,98.1%
same,Total impurities,[4]; 2 months,1.50%
same,Content,[4]; 3 months,98.6%
same,Total impurities,[4]; 3 months,1.56%
same,Content,[4]; 6 months,97.9%
same,Total impurities,[4]; 6 months,1.61%
COc1cc(N2CCC(N3CCN(C)CC3)CC2)c(C)cc1Nc1ncc(Br)c(Nc2ccc3nccnc3c2P(C)(C)=O)n1 [Compound of formula (I)],Tumor volume,lung cancer PC-9 cells; Day 0,185 mm^3
same,Tumor volume,lung cancer PC-9 cells; Day 2,198 mm^3
same,Tumor volume,lung cancer PC-9 cells; Day 6,92 mm^3
same,Tumor volume,lung cancer PC-9 cells; Day 9,75 mm^3
same,Tumor volume,lung cancer PC-9 cells; Day 13,40 mm^3
same,Tumor volume,lung cancer PC-9 cells; Day 16,45 mm^3
same,Tumor volume,lung cancer PC-9 cells; Day 20,76 mm^3
same,Tumor volume,lung cancer PC-9 cells; Day 23,111 mm^3
same,TGI,lung cancer PC-9 cells; day 23,100%
same,"Lung concentration, 2 h",[5]; 2 h after last administration,32533 nmol/kg
same,"Tumor concentration, 2 h",[5]; 2 h after last administration,16667 nmol/kg
same,concentration at 2 h,"[5]; BALB/c nude, mouse, plasma, 2 h after last administration",3.55 µM
same,AUC(0-t),[5]; [14],57 µM·h
same,half-life,[5]; [14],10 h
same,Tumor volume,"[6]; 5 mg/kg/day oral, Day 0",84 mm^3
same,Tumor volume,"[6]; 5 mg/kg/day oral, Day 2",108 mm^3
same,Tumor volume,"[6]; 5 mg/kg/day oral, Day 5",212 mm^3
same,Tumor volume,"[6]; 5 mg/kg/day oral, Day 8",395 mm^3
same,Tumor volume,"[6]; 5 mg/kg/day oral, Day 10",505 mm^3
same,Tumor volume,"[6]; 5 mg/kg/day oral, Day 12",748 mm^3
same,Tumor volume,"[6]; 5 mg/kg/day oral, Day 13",881 mm^3
same,tumor volume inhibition value (TGI),[6]; 15 mg/kg oral daily,74.9%
same,Tumor volume,"[6]; 15 mg/kg/day oral, Day 0",84 mm^3
same,Tumor volume,"[6]; 15 mg/kg/day oral, Day 2",76 mm^3
same,Tumor volume,"[6]; 15 mg/kg/day oral, Day 5",107 mm^3
same,Tumor volume,"[6]; 15 mg/kg/day oral, Day 8",126 mm^3
same,Tumor volume,"[6]; 15 mg/kg/day oral, Day 10",176 mm^3
same,Tumor volume,"[6]; 15 mg/kg/day oral, Day 12",292 mm^3
same,Tumor volume,"[6]; 15 mg/kg/day oral, Day 13",326 mm^3
same,tumor volume inhibition value (TGI),[6]; 45 mg/kg oral daily,101.69%
same,Tumor volume,"[6]; 45 mg/kg/day oral, Day 0",84 mm^3
same,Tumor volume,"[6]; 45 mg/kg/day oral, Day 2",56 mm^3
same,Tumor volume,"[6]; 45 mg/kg/day oral, Day 5",32 mm^3
same,Tumor volume,"[6]; 45 mg/kg/day oral, Day 8",35 mm^3
same,Tumor volume,"[6]; 45 mg/kg/day oral, Day 10",42 mm^3
same,Tumor volume,"[6]; 45 mg/kg/day oral, Day 12",73 mm^3
same,Tumor volume,"[6]; 45 mg/kg/day oral, Day 13",68 mm^3
O=C(Nc1nccs1)C(c1cc(F)ccc1O)N1Cc2ccccc2C1=O (stereo not shown) [EAI045],tumor inhibitory effect,[7],good tumor inhibitory effect
